Source: publication PMC8965344 (Frontiers in Microbiology, 2022)
Where two headings read alike, the source gives them in different places.

What was measured:
[1] = molecular target: T1, human TLR2 (Homo sapiens, UniProt O60603+Q15399); test: cell-based
T1 construct: expressed in transfected cells; host or cells: HEK293-NF-κB-Luc cells (clone LP58), stably transfected

[2] = system: human PBMCs
[3] = system: Streptococcus pneumoniae; conditions: in vivo; cited from earlier work
[4] = system: B. anthracis (Ames strain); format: in vivo, Bacillus anthracis; conditions: for survival rate: 17 days
[5] = in vivo; cited from earlier work
[6] = system: B. anthracis (Ames strain); format: in vivo, Bacillus anthracis; conditions: 13 days
[7] = system: B. anthracis (Ames strain); set-up: species or system Bacillus anthracis; conditions: in vivo
[8] = system: B. anthracis; set-up: species or system Bacillus anthracis; conditions: in vivo
[9] = system: S. aureus; conditions: in vivo; cited from earlier work
[10] = system: PA; conditions: cited from earlier work

T1 sequence (O60603 21-784): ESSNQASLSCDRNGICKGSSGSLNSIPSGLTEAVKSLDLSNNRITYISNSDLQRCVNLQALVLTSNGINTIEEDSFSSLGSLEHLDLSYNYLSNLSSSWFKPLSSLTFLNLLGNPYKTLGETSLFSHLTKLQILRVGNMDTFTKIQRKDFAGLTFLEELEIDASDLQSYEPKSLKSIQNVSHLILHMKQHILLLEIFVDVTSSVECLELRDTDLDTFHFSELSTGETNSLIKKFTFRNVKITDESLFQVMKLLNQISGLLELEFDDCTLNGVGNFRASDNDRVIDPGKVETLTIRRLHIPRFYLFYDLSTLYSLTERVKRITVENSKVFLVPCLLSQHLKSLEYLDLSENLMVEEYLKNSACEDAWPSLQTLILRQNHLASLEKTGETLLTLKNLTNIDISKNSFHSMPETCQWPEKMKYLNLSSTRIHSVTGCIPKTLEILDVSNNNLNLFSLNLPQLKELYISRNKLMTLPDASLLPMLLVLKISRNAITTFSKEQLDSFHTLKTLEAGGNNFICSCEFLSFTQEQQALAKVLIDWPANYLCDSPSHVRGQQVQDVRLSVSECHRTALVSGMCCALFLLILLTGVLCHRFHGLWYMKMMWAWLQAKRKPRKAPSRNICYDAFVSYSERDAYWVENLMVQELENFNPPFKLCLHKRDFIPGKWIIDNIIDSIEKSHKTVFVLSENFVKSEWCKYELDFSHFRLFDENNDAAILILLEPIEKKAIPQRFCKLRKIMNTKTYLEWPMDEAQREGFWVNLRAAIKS
T1 sequence (Q15399 25-786): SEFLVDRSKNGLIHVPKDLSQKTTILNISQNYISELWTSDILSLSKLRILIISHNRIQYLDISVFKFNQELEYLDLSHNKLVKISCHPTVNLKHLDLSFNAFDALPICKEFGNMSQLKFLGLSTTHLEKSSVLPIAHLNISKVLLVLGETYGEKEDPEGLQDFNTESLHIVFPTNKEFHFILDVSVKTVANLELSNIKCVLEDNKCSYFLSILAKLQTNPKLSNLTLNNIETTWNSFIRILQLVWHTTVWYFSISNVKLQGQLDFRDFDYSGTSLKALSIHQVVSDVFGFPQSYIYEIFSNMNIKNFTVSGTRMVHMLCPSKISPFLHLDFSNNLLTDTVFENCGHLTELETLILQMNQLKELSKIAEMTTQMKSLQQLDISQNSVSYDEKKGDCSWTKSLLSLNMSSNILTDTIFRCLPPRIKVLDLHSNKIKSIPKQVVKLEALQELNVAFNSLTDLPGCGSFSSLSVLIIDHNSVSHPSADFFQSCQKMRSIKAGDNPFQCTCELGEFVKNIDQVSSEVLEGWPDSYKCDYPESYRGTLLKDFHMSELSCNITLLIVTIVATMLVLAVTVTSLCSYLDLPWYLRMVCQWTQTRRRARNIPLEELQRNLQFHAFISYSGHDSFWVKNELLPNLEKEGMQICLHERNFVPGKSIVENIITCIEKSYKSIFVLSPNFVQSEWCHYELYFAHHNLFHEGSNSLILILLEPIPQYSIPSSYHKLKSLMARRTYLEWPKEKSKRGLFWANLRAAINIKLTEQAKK

For lipopolysaccharide [LPS], the “induction of NF-kB activity” value [1] was “dose dependent induction of NF-kB activity” and the “induction of IFN-γ, TNF-α and IL-6 production” value (from here on “induction of IFN-γ”) [2] was “able to induce aforementioned cytokine productions with varying potency”.

In the case of MALP-2, the “pulmonary bacterial burden in mice” value [3] is given as “reduced pulmonary bacterial burden in mice”.

For ODN1826, the survival rate [4] was 0%.

For `CCc1nc2c(N)nc3ccccc3c2n1CCCCNS(C)(=O)=O` [PF4878691], the “adverse effects in patients” value [5] is given as “flu-like symptoms, lymphopenia and hypotension”.

In the case of `CCCCCCCCCCCCCCCC(=O)N[C@@H](CSC[C@@H](COC(=O)CCCCCCCCCCC)OC(=O)CCCCCCCCCCC)C(=O)N[C@@H](C)C(=O)N[C@H](CCC(=O)O)C(N)=O` [DA-98-WW07, (4R,7S,10R,14R)-4-carbamoyl-14-(dodecanoyloxy)-7-methyl-6,9,17-trioxo-10-palmitamido-16-oxa-12-thia-5,8-diazaoctacosanoic acid], the EC50 [1] is reported as 1.04 ± 1.16 µM and the “efficacy (% Eff), NF-κB-Luciferase” value [1] is reported as 101.36%.

With `O=C(O)c1cn(C2CC2)c2cc(N3CCNCC3)c(F)cc2c1=O` [ciprofloxacin] the survival rate [6] was 50%.

In the case of Pam3CSK4, the survival rate [4] is reported as 60%, the “protection of mice from lethal challenge of B. anthracis” value ([4]; in vivo) is reported as “the best at protecting mice from lethal challenge of B. anthracis” and the “induction of NF-kB activity” value [1] is reported as “dose dependent induction of NF-kB activity”. The survival rate [7] was 40%, the “survival rate after re-challenge” value [8] was 25% and the “induction of IFN-γ” value [2] was “able to induce aforementioned cytokine productions with varying potency”.

In the case of Pam3Cys, the “protection from S. aureus endophthalmitis” value [9] is given as “protected mice from S. aureus endophthalmitis, preserved retinal structural integrity, and maintained visual function”.

For Pam2CSK4, the survival rate [4] was 20%, the “induction of NF-kB activity” value [1] was “dose dependent induction of NF-kB activity” and the “induction of IFN-γ” value [2] was “able to induce aforementioned cytokine productions with varying potency”.

Poly (I:C) gave a survival rate [4] of 20%.

B1: obiltoxaximab (antibody, chains of the INN, looked up, V domains shown)
VH: QVQLQQSGPELKKPGASVKVSCKDSGYAFSSSWMNWVRQAPGQGLEWIGRIYPGDGDTNYNGKFQGRVTITADKSSSTAYMELSSLRSEDTAVYFCARSGLLRYAMDYWGQGTLVTVSS
VL: DIQMTQSPSSLSASVGDRVTITCRASQDIRNYLNWYQQKPGKAVKLLIYYTSRLLPGVPSRFSGSGSGTDYSLTISSQEQEDIGTYFCQQGNTLPWTFGQGTKVEIR
In the case of B1, the “binding to PA and block of binding to anthrax toxin receptors” value [10] is given as “bind to PA and block its binding to anthrax toxin receptors”.
